Measurements reported in patent US7625889B2, “Substituted bis aryl and heteroaryl compounds as selective 5HT2A antagonists” (Aventis Pharmaceuticals Inc., priority 2005, dated 2009).
Where a name gives a salt, the structure may show the parent alone.

Target: T1, human 5HT2A receptor (Homo sapiens, UniProt P28223)
T1 construct: expressed in transfected cells
Test: Receptor Binding Assay, 5HT2A ([3H]N-methyl spiperone)
Conditions: BHK cells expressing human 5HT2A receptor, 2.5 nM [3H]N-methyl spiperone, 37° C.
Protocol: Cell Culture: BHK cells stably expressing the human 5HT2A receptor were maintained in Dulbecco's Modified Eagle's Medium supplemented with […] Geneticin, 1% Sodium Pyruvate, 1% Pen-Strep and 10% Fetal Calf Serum, and treated with 5 mM sodium butyrate for 24 h to increase receptor expression before harvesting. Cells were harvested by mechanical scraping, washed with Phosphate Buffered Saline, and stored at −80° C. in 10% DMSO in 1 mg/mil aliquots until used. Protein determination was made according to Lowry.
Receptor Binding Assays: The 5HT2A and D2L assays were conducted at 37° C. in a Tris buffer containing salts (50 mM Tris Buffer, pH 7.7; 120 mM NaCl; 5 mM KCl; 2 mM CaCl2; 1 mM MgCl2). Cell membranes (previously prepared and frozen) were rapidly thawed. Membranes were diluted to an appropriate concentration (to produce 100 μg protein/assay point for 5HT2A, and 58 μg protein/assay point for D2L) in Tris buffer and homogenized. Assays were conducted on 96-well plates, using 2.5 and 1 nM [^3H]N-methyl spiperone as radioligand for 5HT2A and D2L assays, respectively. Plates were incubated at 37° C. in a shaking water bath for 30 and 60 min, for 5HT2A and D2L, respectively. Nonspecific binding was defined using 100 μM methylsergide and eticlopride, for 5HT2A and D2L, respectively.
Assays were terminated by rapid filtration through Millipore MAFB or MAFC (5HT2C) filter plates (presoaked in 50 mM Tris HCl, pH 7.7, with 0.1% Brij) using a Millipore Cell Harvester. The filter plates were then washed with ice-cold 50 mM Tris buffer, pH 7.7, and allowed to dry overnight. 50 μl of Microscint scintillation cocktail were added and the plates were counted in a Packard Topcount scintillation counter.
IC50 and Ki calculations were performed using nonlinear regression one-site competition analysis (GraphPad, Prism), with top and bottom limits held constant at 0% and 100% inhibition, respectively. The percent inhibition at each drug concentration was the average of duplicate determinations. Except where indicated, each determination was performed 2 to 5 times.

T1 sequence (P28223 whole entry): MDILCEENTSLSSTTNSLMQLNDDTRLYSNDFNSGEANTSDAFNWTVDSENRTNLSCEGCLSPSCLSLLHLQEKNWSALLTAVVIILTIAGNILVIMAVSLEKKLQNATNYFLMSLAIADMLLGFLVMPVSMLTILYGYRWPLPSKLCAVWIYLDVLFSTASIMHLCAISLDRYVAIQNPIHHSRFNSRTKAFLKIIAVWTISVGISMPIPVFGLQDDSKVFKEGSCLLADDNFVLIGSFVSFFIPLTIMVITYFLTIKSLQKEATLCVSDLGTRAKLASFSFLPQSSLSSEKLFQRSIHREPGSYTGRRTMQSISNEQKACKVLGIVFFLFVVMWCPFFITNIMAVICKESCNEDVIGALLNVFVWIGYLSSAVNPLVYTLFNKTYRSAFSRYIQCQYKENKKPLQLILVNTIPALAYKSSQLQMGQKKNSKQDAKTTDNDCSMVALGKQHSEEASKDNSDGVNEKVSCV

| SMILES | Ki [nM] |
| --- | --- |
| CN1CC[C@@H](N(Cc2cc(-c3ccc4[nH]ncc4c3)ccc2F)C(=O)c2ccc(F)cc2)C1 [Example 62] | 0.75 |
| O=C(c1ccc(F)cc1)N(CCN1CCCC1)Cc1cc(-c2ccc3[nH]ncc3c2)ccc1F [Example 55] | 0.31 |
| O=C(c1ccc(F)cc1)N(Cc1cc(-c2ccc3[nH]ccc3c2)ccc1F)[C@H]1CN2CCC1CC2 [Example 77, N-(1-Aza-bicyclo[2.2.2]oct-3R-yl)-4-fluoro-N-[2-fluoro-5-(1H-indol-6-yl)-benzyl]-benzamide] | 0.49 |
| CN(C)CCN(Cc1ccc(F)cc1)Cc1cc(-c2ccc3[nH]c(=O)oc3c2)co1 [Example 50] | 2.5 |
| CCN1CCCC1CN(Cc1cc(-c2ccc3[nH]c(=O)oc3c2)ccc1F)C(=O)c1ccc(F)cc1 (stereo not shown) [Example 25] | 0.6 |
| CN(C)CCN(Cc1cc(-c2ccc3[nH]ccc3c2)ccc1F)C(=O)c1cccs1 [Example 33] | 1.19 |
| O=C(c1ccc(F)cc1)N(Cc1cc(-c2ccc3[nH]c(=O)oc3c2)ccc1F)[C@H]1CN2CCC1CC2 [Example 79] | 0.61 |
| CN(C)CCN(Cc1ccccc1)Cc1cccc(-c2ccc3[nH]ccc3c2)c1 [Example 1, N-Benzyl-N-[3-(1H-indol-5-yl)-benzyl]-N′,N′-dimethyl-ethane-1,2-diamine] | 10.8 |
| CN(C)CCN(Cc1cc(-c2ccc3c(c2)CCN3)ccc1F)C(=O)c1ccc(F)cc1 [Example 60] | 1.13 |
| CN1CCC(N(Cc2cc(-c3ccc4[nH]c(=O)oc4c3)ccc2F)C(=O)c2ccc(F)cc2)CC1 [Example 59] | 0.89 |
| CN(C)CCCN(Cc1ccccc1)Cc1cccc(-c2ccc3[nH]cnc3c2)c1 [Example 19] | 76.5 |
| O=C(c1ccc(F)cc1)N(CCN1CCCC1)Cc1cccc(-c2ccc3[nH]nnc3c2)c1 [Example 54] | 0.9 |
| CCN1CCC[C@@H]1CN(Cc1cc(-c2ccc3[nH]c(=O)oc3c2)ccc1F)C(=O)c1ccc(F)cc1 [Example 31] | 0.92 |
| CN(C)CCN(Cc1cc(-c2ccc3[nH]cc(C#N)c3c2)ccc1F)C(=O)c1ccc(F)cc1 [Example 35] | 2.8 |
| CN1CCN(Cc2cc(-c3ccc4[nH]ccc4n3)ccc2F)[C@@H](c2ccc(F)cc2)C1 [Example 52] | 3.1 |
| CN1[C@@H]2CC[C@H]1C[C@H](N(Cc1cc(-c3ccc4[nH]ncc4c3)ccc1F)C(=O)c1ccc(F)cc1)C2 [Example 65] | 0.9 |
| CN1CCN(Cc2cccc(-c3ccc4[nH]c(=O)oc4c3)c2)CC1 [Example 8] | 35.4 |
| O=C(c1ccc(F)cc1)N(Cc1cc(-c2ccc3[nH]ncc3c2)ccc1F)[C@H]1CN2CCC1CC2 [Example 103, N-(1-Aza-bicyclo[2.2.2]oct-3R-yl)-4-fluoro-N-[2-fluoro-5-(1H-indazol-5-yl)-benzyl]-benzamide] | 1.01 |
| CN1CCN(Cc2cc(-c3ccc4[nH]c(=O)oc4c3)co2)[C@H](c2ccc(F)cc2)C1 [Example 11] | 16.2 |

Second part, the compound after the results:

| Ki [nM] | SMILES |
| --- | --- |
| 16 | CN1CCC(N(Cc2cc(-c3ccc4[nH]ccc4c3)ccc2F)C(=O)c2ncccn2)CC1 [Example 108, Pyrimidine-2-carboxylic acid [2-fluoro-5-(1H-indol-5-yl)-benzyl]-(1-methyl-piperidin-4-yl)-amide] |
| 1.16 | CN1CCC(N(Cc2ccc(F)cc2)Cc2cc(-c3ccc4[nH]nnc4c3)ccc2F)CC1 [Example 88, [5-(1H-Benzotriazol-5-yl)-2-fluoro-benzyl]-(4-fluoro-benzyl)-(1-methyl-piperidin-4-yl)-amine hydrochloride] |
| 1.35 | CN1CCC(N(Cc2cc(-c3ccc4[nH]nnc4c3)ccc2F)C(=O)c2ccc(F)cc2)CC1 [Example 69, N-[5-(1H-Benzotriazol-5-yl)-2-fluoro-benzyl]-N-(1-methyl-piperidin-4-yl)-4-fluoro-benzamide] |
| 65 | CN1CCN(Cc2cccc(-c3ccc4[nH]ccc4c3)c2)CC1 [Example 120, 5-[3-(4-Methyl-piperazin-1-ylmethyl)-phenyl]-1H-indole] |
| 9 | CN1CCC(N(Cc2cc(-c3ccc4[nH]ccc4c3)ccc2F)C(=O)c2cccnn2)CC1 [Example 106, Pyridazine-3-carboxylic acid [2-fluoro-5-(1H-indol-5-yl)-benzyl]-(1-methyl-piperidin-4-yl)-amide] |
| 1 | CN1CCC(N(Cc2ccc(F)cc2)Cc2cc(-c3ccc4[nH]c(=O)oc4c3)ccc2F)CC1 [Example 89, 6-(4-Fluoro-3-{[(4-fluoro-benzyl)-(1-methyl-piperidin-4-yl)-amino]-methyl}-phenyl)-3H-benzooxazol-2-one] |
| 3.8 | CN1CCC(N(Cc2cc(-c3ccc4[nH]ccc4c3)ccc2F)C(=O)c2ccncn2)CC1 [Example 105, Pyrimidine-4-carboxylic acid [2-fluoro-5-(1H-indol-5-yl)-benzyl]-(1-methyl-piperidin-4-yl)-amide] |
| 1.05 | CN(C)CCN(Cc1cncc(-c2ccc3[nH]ccc3c2)c1)C(=O)c1ccc(F)cc1 [Example 74, N-(2-Dimethylamino-ethyl)-4-fluoro-N-[5-(1H-indol-5-yl)-pyridin-3-ylmethyl]-benzamide trifluoroacetate] |
| 1.68 | CNCCN(Cc1ccc(F)cc1)Cc1cc(-c2ccc3[nH]nnc3c2)ccc1F [Example 86, N-[5-(1H-Benzotriazol-5-yl)-2-fluoro-benzyl]-N-(4-fluoro-benzyl)-N′-methyl-ethane-1,2-diamine] |
| 0.82 | CNCCN(Cc1ccc(F)cc1)Cc1cc(-c2ccc3[nH]ncc3c2)ccc1F [Example 83, N-(4-Fluoro-benzyl)-N-[2-fluoro-5-(1H-indazol-5-yl)-benzyl]-N′-methyl-ethane-1,2-diamine] |
| 1.79 | Fc1ccc([C@H]2CNCCN2Cc2cc(-c3ccc4[nH]ncc4c3)co2)cc1 [Example 116, 5-{5-[2S-(4-Fluoro-phenyl)-piperazin-1-ylmethyl]furan-3-yl}-1H-indazole] |
| 6 | CN1CCC(N(Cc2cc(-c3ccc4[nH]ccc4c3)ccc2F)C(=O)c2ccc(OC(F)(F)F)cc2)CC1 [Example 112, N-[2-Fluoro-5-(1H-indol-5-yl)-benzyl]-N-(1-methyl-piperidin-4-yl)-4-trifluoromethoxy-benzamide] |
| 0.77 | CN1CCN(Cc2cc(-c3ccc4[nH]c(=O)oc4c3)ccc2F)[C@@H](c2ccc(F)cc2)C1 [Example 97, 6-{4-Fluoro-3-[2S-(4-fluoro-phenyl)-4-methyl-piperazin-1-ylmethyl]-phenyl}-3H-benzooxazol-2-one] |
| 4.74 | CN1CCC(N(Cc2cc(-c3ccc4[nH]ccc4c3)co2)C(=O)c2ccc(F)cc2)CC1 [Example 76] |
| 0.29 | CN1CCN(Cc2cncc(-c3ccc4[nH]ncc4c3)c2)[C@@H](c2ccc(F)cc2)C1 [Example 99, 5-{5-[2S-(4-Fluoro-phenyl)-4-methyl-piperazin-1-ylmethyl]-pyridin-3-yl}-1H-indazole] |
| 0.72 | CN1CCC(N(Cc2ccc(F)cc2)Cc2cc(-c3ccc4[nH]ccc4c3)ccc2F)CC1 [Example 70, (4-Fluoro-benzyl)-[2-fluoro-5-(1H-indol-5-yl)-benzyl]-(1-methyl-piperidin-4-yl)-amine] |
| 85 | CC(C)Oc1ccc(C(=O)N(Cc2cc(-c3ccc4[nH]ccc4c3)ccc2F)C2CCN(C)CC2)cc1 [Example 110, N-[2-Fluoro-5-(1H-indol-5-yl)-benzyl]-4-isopropoxy-N-(1-methyl-piperidin-4-yl)-benzamide] |
| 0.4 | Fc1ccc([C@H]2CNCCN2Cc2cncc(-c3ccc4[nH]ncc4c3)c2)cc1 [Example 113, 5-{5-[2S-(4-Fluoro-phenyl)-piperazin-1-ylmethyl]-pyridin-3-yl}-1H-indazole] |
| 2.14 | O=C(c1ccc(F)cc1)N(CCN1CCCC1)Cc1ccc(-c2ccc3[nH]ccc3c2)s1 [Example 75] |
| 0.6 | CN1CCN(Cc2cc(-c3ccc4[nH]ccc4c3)ccc2F)C(c2ccco2)C1 (stereo not shown) [Example 93, 5-[4-Fluoro-3-(2-furan-2-yl-4-methyl-piperazin-1-ylmethyl)-phenyl]-1H-indole] |
| 0.88 | CN1CCC(N(Cc2cc(-c3ccc4[nH]ncc4c3)ccc2F)C(=O)c2ccc(F)cc2)CC1 [Example 102, 4-Fluoro-N-[2-fluoro-5-(1H-indazol-5-yl)-benzyl]-N-(1-methyl-piperidin-4-yl)-benzamide] |
| 22.6 | CN(C)CCN(Cc1ccc(F)cc1)Cc1cc(-c2ccc3[nH]cc(C#N)c3c2)ccc1F [Example 140, 5-(3-{[(2-Dimethylamino-ethyl)-(4-fluoro-benzyl)-amino]-methyl}-4-fluoro-phenyl)-1H-indole-3-carbonitrile trifluoro-acetate] |
| 1.1 | CN1CCC(N(Cc2ccc(F)cc2)Cc2cc(-c3ccc4[nH]c(=O)oc4c3)co2)CC1 [Example 118, 6-(5-{[(4-Fluoro-benzyl)-(1-methyl-piperidin-4-yl)-amino]-methyl}-furan-3-yl)-3H-benzooxazol-2-one] |
| 0.58 | CN1CC[C@H](N(Cc2cc(-c3ccc4[nH]ncc4c3)ccc2F)C(=O)c2ccc(F)cc2)C1 [Example 63] |
